pEC50: −log10 of the molar value.
Target: T1, GFRα1-RET (Homo sapiens, UniProt P56159)
T1 construct: expressed in transfected cells; host or cells: MG87 murine fibroblasts stably transfected with PathDetect Elk-1, GFRα1 and RET
T1 sequence (P56159 25-429 limits assumed): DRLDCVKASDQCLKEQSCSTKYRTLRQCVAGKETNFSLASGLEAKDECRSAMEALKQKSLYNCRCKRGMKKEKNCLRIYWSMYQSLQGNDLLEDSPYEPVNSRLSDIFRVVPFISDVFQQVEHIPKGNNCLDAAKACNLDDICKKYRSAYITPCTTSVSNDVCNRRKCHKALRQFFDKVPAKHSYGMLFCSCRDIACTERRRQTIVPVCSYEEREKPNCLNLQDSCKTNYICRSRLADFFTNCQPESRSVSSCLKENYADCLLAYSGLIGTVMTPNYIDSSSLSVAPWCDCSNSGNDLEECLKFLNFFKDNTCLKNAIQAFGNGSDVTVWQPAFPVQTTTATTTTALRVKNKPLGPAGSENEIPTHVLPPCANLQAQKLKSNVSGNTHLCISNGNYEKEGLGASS
Experiment: Elk1 luciferase reporter-gene assay in cells expressing GFRα1-RET
Assay type: cell-based
Details: agonist/activator activity of Elk1 signaling; MG87 murine fibroblast stably transfected with PathDetect Elk-1, GFRα1 and RET; 6 concentrations, duplicate, two independent runs
Experimental: For EC50 determination, a dose-response test was performed using 6 concentrations of each tested compound. Dose-response curves were fitted using the sigmoidal dose-response (variable slope) analysis in GraphPad Prism program (Graph Pad Inc) and EC50 of agonist/activator activity was calculated. Dose-response experiments were all performed in duplicate, two times independently.

Row | Compound | pEC50
1 | COc1ccc(S(=O)(=O)C2COC2)cc1N1CCN(C(=O)c2ccc(F)cc2Cl)CC1 [Cpd 011, (2-chloro-4-fluoro-phenyl)-[4-[2-methoxy-5-(oxetan-3-ylsulfonyl)phenyl]piperazin-1-yl]methanone] | 4.30 to 5.00
2 | COc1ccc(S(=O)(=O)C(C)CCCc2ccccc2)cc1N1C2CCC1CN(C(=O)c1ccc(F)cc1Cl)C2 (racemic) [Cpd 024, (2-chloro-4-fluoro-phenyl)-[(1S,5R)-8-[2-methoxy-5-[(1SR)-1-methyl-4-phenyl-butyl]sulfonyl-phenyl]-3,8-diazabicyclo[3.2.1]octan-3-yl]methanone] | 5.00 to 6.00
3 | COc1ccc(S(=O)(=O)CCC2CCCC2)cc1N1[C@@H]2CC[C@H]1CN(C(=O)c1ccc(F)cc1Cl)C2 [Cpd 019, (2-chloro-4-fluoro-phenyl)-[(1S,5R)-8-[5-(2-cyclopentylethylsulfonyl)-2-methoxy-phenyl]-3,8-diazabicyclo[3.2.1]octan-3-yl]methanone] | 5.00 to 6.00
4 | COc1ccc(S(=O)(=O)CC2CCC2)cc1N1CCN(C(=O)c2ccc(F)cc2Cl)CC1 [Cpd 012, (2-chloro-4-fluoro-phenyl)-[4-[5-(cyclobutylmethylsulfonyl)-2-methoxy-phenyl]piperazin-1-yl]methanone] | 4.30 to 5.00
5 | CCC(CC)CS(=O)(=O)c1ccc(OC)c(N2[C@@H]3CC[C@H]2CN(C(=O)c2ccc(F)cc2Cl)C3)c1 [Cpd 021, (2-chloro-4-fluoro-phenyl)-[(1S,5R)-8-[5-(2-ethylbutylsulfonyl)-2-methoxy-phenyl]-3,8-diazabicyclo[3.2.1]octan-3-yl]methanone] | 5.00 to 6.00
6 | COc1ccc(S(=O)(=O)C2CCCC2)cc1N1[C@@H]2CC[C@H]1CN(C(=O)c1ccc(F)cc1Cl)C2 [Cpd 004, (2-chloro-4-fluoro-phenyl)-[(1S,5R)-8-(5-cyclopentylsulfonyl-2-methoxy-phenyl)-3,8-diazabicyclo[3.2.1]octan-3-yl]methanone] | 5.00 to 6.00
7 | COc1ccc(S(=O)(=O)CC(C)(C)C)cc1N1[C@@H]2CC[C@H]1CN(C(=O)c1ccc(F)cc1Cl)C2 [Cpd 015, (2-chloro-4-fluoro-phenyl)-[(1S,5R)-8-[5-(2,2-dimethylpropylsulfonyl)-2-methoxy-phenyl]-3,8-diazabicyclo[3.2.1]octan-3-yl]methanone] | 5.00 to 6.00
8 | CCC(CCc1ccccc1)S(=O)(=O)c1ccc(OC)c(N2C3CCC2CN(C(=O)c2ccc(F)cc2Cl)C3)c1 (racemic) [Cpd 025, (2-chloro-4-fluoro-phenyl)-[(1S,5R)-8-[5-[(1SR)-1-ethyl-3-phenyl-propyl]sulfonyl-2-methoxy-phenyl]-3,8-diazabicyclo[3.2.1]octan-3-yl]methanone] | 5.00 to 6.00
9 | COc1ccc(S(=O)(=O)C2CCN(c3ccccc3)CC2)cc1N1[C@@H]2CC[C@H]1CN(C(=O)c1ccc(F)cc1Cl)C2 [Cpd 027, (2-chloro-4-fluoro-phenyl)-[(1S,5R)-8-[2-methoxy-5-[(1-phenyl-4-piperidyl)sulfonyl]phenyl]-3,8-diazabicyclo[3.2.1]octan-3-yl]methanone] | > 6.00
10 | COc1ccc(S(=O)(=O)C(C)CCc2ccccc2)cc1N1C2CCC1CN(C(=O)c1ccc(F)cc1Cl)C2 (racemic) [Cpd 023, (2-chloro-4-fluoro-phenyl)-[(1S,5R)-8-[2-methoxy-5-[(1SR)-1-methyl-3-phenyl-propyl]sulfonyl-phenyl]-3,8-diazabicyclo[3.2.1]octan-3-yl]methanone] | 5.00 to 6.00
11 | O=C(c1ccc(F)cc1Cl)N1C[C@H]2CC[C@@H](C1)N2c1cc(S(=O)(=O)C2CCN(c3ccccc3)CC2)ccc1O [Cpd 030, (2-chloro-4-fluoro-phenyl)-[(1S,5R)-8-[2-hydroxy-5-[(1-phenyl-4-piperidyl)sulfonyl]phenyl]-3,8-diazabicyclo[3.2.1]octan-3-yl]methanone] | > 6.00
12 | COc1ccc(S(=O)(=O)C2CCC2)cc1N1[C@@H]2CC[C@H]1CN(C(=O)c1ccc(F)cc1Cl)C2 [Cpd 010, (2-chloro-4-fluoro-phenyl)-[(1S,5R)-8-(5-cyclobutylsulfonyl-2-methoxy-phenyl)-3,8-diazabicyclo[3.2.1]octan-3-yl]methanone] | 5.00 to 6.00
13 | COc1ccc(S(=O)(=O)C2CCN(CCc3ccc(F)cc3)CC2)cc1N1[C@@H]2CC[C@H]1CN(C(=O)c1ccc(F)cc1Cl)C2 [Cpd 029, (2-chloro-4-fluoro-phenyl)-[(1S,5R)-8-[5-[[1-[2-(4-fluorophenyl)ethyl]-4-piperidyl]sulfonyl]-2-methoxy-phenyl]-3,8-diazabicyclo[3.2.1]octan-3-yl]methanone] | 5.00 to 6.00
14 | Cc1cc(S(=O)(=O)CC(C)(C)C)cc(N2[C@@H]3CC[C@H]2CN(C(=O)c2ccc(F)cc2Cl)C3)c1O [Cpd 032, (2-chloro-4-fluoro-phenyl)-[(1S,5R)-8-[5-(2,2-dimethylpropylsulfonyl)-2-hydroxy-3-methyl-phenyl]-3,8-diazabicyclo[3.2.1]octan-3-yl]methanone] | 5.00 to 6.00
15 | COc1ccc(S(=O)(=O)C2CCCCC2)cc1N1CCN(C(=O)c2ccc(F)cc2C(F)(F)F)CC1 [Cpd 003, [4-(5-cyclohexylsulfonyl-2-methoxy-phenyl)piperazin-1-yl]-[4-fluoro-2-(trifluoromethyl)phenyl]methanone] | 4.30 to 5.00
16 | O=C(c1ccc(F)cc1Cl)N1C[C@H]2CC[C@@H](C1)N2c1cc(S(=O)(=O)C2CCN(CCc3ccccc3)CC2)ccc1O [Cpd 031, (2-chloro-4-fluoro-phenyl)-[(1S,5R)-8-[2-hydroxy-5-[[1-(2-phenylethyl)-4-piperidyl]sulfonyl]phenyl]-3,8-diazabicyclo[3.2.1]octan-3-yl]methanone] | 5.00 to 6.00
17 | COc1ccc(S(=O)(=O)CC2CCCC2)cc1N1CCN(C(=O)c2ccc(F)cc2Cl)CC1 [Cpd 013, (2-chloro-4-fluoro-phenyl)-[4-[5-(cyclopentylmethylsulfonyl)-2-methoxy-phenyl]piperazin-1-yl]methanone] | 5.00 to 6.00
18 | COc1ccc(S(=O)(=O)C2CCCC2)cc1N1CCN(C(=O)c2ccc(F)cc2Cl)CC1C (racemic) [Cpd 006, (2-chloro-4-fluoro-phenyl)-[rac-(3S)-4-(5-cyclopentylsulfonyl-2-methoxy-phenyl)-3-methyl-piperazin-1-yl]methanone] | 5.00 to 6.00
19 | CCC(CC)S(=O)(=O)c1ccc(OC)c(N2CCN(C(=O)c3ccc(F)cc3C(F)(F)F)CC2)c1 [Cpd 001, [4-[5-(1-ethylpropylsulfonyl)-2-methoxy-phenyl]piperazin-1-yl]-[4-fluoro-2-(trifluoromethyl)phenyl]methanone] | 4.30 to 5.00
20 | CCCCS(=O)(=O)c1ccc(OC)c(N2[C@@H]3CC[C@H]2CN(C(=O)c2ccc(F)cc2Cl)C3)c1 [Cpd 020, [(1S,5R)-8-(5-butylsulfonyl-2-methoxy-phenyl)-3,8-diazabicyclo[3.2.1]octan-3-yl]-(2-chloro-4-fluoro-phenyl)methanone] | 5.00 to 6.00
21 | COc1ccc(S(=O)(=O)C2CCN(CCc3ccccc3)CC2)cc1N1[C@@H]2CC[C@H]1CN(C(=O)c1ccc(F)cc1Cl)C2 [Cpd 028, (2-chloro-4-fluoro-phenyl)-[(1S,5R)-8-[2-methoxy-5-[[1-(2-phenylethyl)-4-piperidyl]sulfonyl]phenyl]-3,8-diazabicyclo[3.2.1]octan-3-yl]methanone] | 5.00 to 6.00
22 | CCC(CCCc1ccccc1)S(=O)(=O)c1ccc(OC)c(N2C3CCC2CN(C(=O)c2ccc(F)cc2Cl)C3)c1 (racemic) [Cpd 026, (2-chloro-4-fluoro-phenyl)-[(1S,5R)-8-[5-[(1SR)-1-ethyl-4-phenyl-butyl]sulfonyl-2-methoxy-phenyl]-3,8-diazabicyclo[3.2.1]octan-3-yl]methanone] | 5.00 to 6.00
23 | COc1ccc(S(=O)(=O)C2CCCC2)cc1N1CCN(C(=O)c2ccc(F)cc2C(F)(F)F)CC1 [Cpd 002, [4-(5-cyclopentylsulfonyl-2-methoxy-phenyl)piperazin-1-yl]-[4-fluoro-2-(trifluoromethyl)phenyl]methanone] | 4.30 to 5.00
24 | Cc1c(Cl)cc(S(=O)(=O)CC(C)(C)C)cc1N1[C@@H]2CC[C@H]1CN(C(=O)c1ccc(F)cc1Cl)C2 [Cpd 036, [(1S,5R)-8-[3-chloro-5-(2,2-dimethylpropylsulfonyl)-2-methyl-phenyl]-3,8-diazabicyclo[3.2.1]octan-3-yl]-(2-chloro-4-fluoro-phenyl)methanone] | > 6.00
25 | COc1ccc(S(=O)(=O)Cc2ccccc2)cc1N1[C@@H]2CC[C@H]1CN(C(=O)c1ccc(F)cc1Cl)C2 [Cpd 014, [(1S,5R)-8-(5-benzylsulfonyl-2-methoxy-phenyl)-3,8-diazabicyclo[3.2.1]octan-3-yl]-(2-chloro-4-fluoro-phenyl)methanone] | 4.30 to 5.00
26 | CCC(CC)S(=O)(=O)c1ccc(OC)c(N2CCN(C(=O)c3ccc(F)cc3Cl)CC2C)c1 (racemic) [Cpd 007, (2-chloro-4-fluoro-phenyl)-[rac-(3S)-4-[5-(1-ethylpropylsulfonyl)-2-methoxy-phenyl]-3-methyl-piperazin-1-yl]methanone] | 5.00 to 6.00
27 | CCCC(C)S(=O)(=O)c1ccc(OC)c(N2CCN(C(=O)c3ccc(F)cc3Cl)CC2C)c1 (racemic) [Cpd 016] | 5.00 to 6.00
28 | CCC(CC)S(=O)(=O)c1ccc(OC)c(N2[C@@H]3CC[C@H]2CN(C(=O)c2ccc(F)cc2Cl)C3)c1 [Cpd 005, (2-chloro-4-fluoro-phenyl)-[(1S,5R)-8-[5-(1-ethylpropylsulfonyl)-2-methoxy-phenyl]-3,8-diazabicyclo[3.2.1]octan-3-yl]methanone] | 5.00 to 6.00
